In patent publication US9376454B2, “Beta-lactamase inhibitors” (priority 2013, dated 2016) one finds IC50 data, which are given here for 15 molecules.

pIC50: −log10 of the molar value. Where only a bound is given, the exact number is not on record here.

What all share (format): biochemical
For one assay, the target named is T1, OXA-1 β-lactamase (Escherichia coli, UniProt P13661).
T1 construct: made in house; host or cells: E. coli BL21(DE3)
The assay is described as follows: β-Lactamase inhibition enzyme assay, OXA-1. The following applies: Nitrocefin 100 μM as substrate, 486 nm; 15 min at 37° C. with enzyme, PBS pH 7.4; read-out: Class D OXA-1 IC50. As to the method: (§1) For SHV-5, Kpc-2, p99AmpC and OXA-1 β-lactamases, E. coli BL21(DE3) bacterial cells carrying expression plasmids (expressed as native untagged proteins) for the individual β-lactamases were grown in 1 L of Superbroth (Teknova Inc. Hollister, Calif.) supplemented with 100 μg/ml kanamycin selection and 1×5052 (0.5% glycerol, 0.05% glucose and 0.2% α-lactose) at 35° C. for 18-20 hours. Cells were harvested by centrifugation (4,000×g, 4° C., 20 min), resuspended in 50 ml of 10 mM HEPES pH 7.5 ( 1/20 of the initial volume). The cells were lysed by sonication (5 pulses of 45 seconds) at 45 W on ice. The lysates were clarified by centrifugation at 10,000×g for 40 minutes at 4° C. Samples were diluted 5-fold in 50 mM sodium acetate pH 5.0, stored overnight at 4° C., after which they were centrifuged at 10,000×g for 30 minutes to clarify, and filtered through 0.45 μm filters. The samples were loaded onto a 5 ml Capto S sepharose cation exchange column (GE Healthcare) pre-equilibrated with 50 mM sodium acetate pH 5.0. The column was washed with 5 column volumes of 50 mM sodium acetate pH 5.0 to wash out unbound protein and a linear gradient of NaCl (0 to 500 mM) was used to elute the protein (over 16 CV) from the column. Fractions were assayed for β-lactamase activity using Centa (Calbiochem, Gibbstown, N.J.) or Nitrocefin (EMD Millipore chemicals, Darmstadt, Germany) as a reporter β-lactamase substrate for activity in the isolated fractions. Active fractions were pooled, concentrated and further purified by gel filtration chromatography on a Superdex 75 prep grade gel filtration column (GE Healthcare, Piscataway, N.J.) pre-equilibrated in 50 mM Hepes pH 7.5, 150 mM NaCl. Active fractions were pooled concentrated, quantitated by BCA protein determination (Thermo Scientific, Rockford, Ill.), dialyzed into PBS and frozen at −80° C. in 20% glycerol until use.
(§2) An equal volume of diluted enzyme stock was added, and the plates were incubated at 37° C. for 15 min. Nitrocefin was used as substrate for p99 AmpC, VIM-2 and OXA-1 and dispensed into each well at a final concentration of 100 μM. Absorbance at 486 nm was immediately monitored for 10 min using a Biotek Powerwave XS2 microplate spectrophotometer using the GEN5 softweare package (Biotek Instruments, Winooski Vt.). In an analogous fashion, imipenem was used as substrate for Kpc-2 and Cefotaxime was used for SHV-5, while changes in absorbance upon hydrolysis of the β-lactam ring were monitored at 300 nm and 260 nm respectively in UV-transparent 96-well microtiter assay plates. Maximum rates of hydrolysis were compared to those in control wells (without inhibitors), and percentages of enzyme inhibition were calculated for each concentration of inhibitor. The concentration of inhibitor needed to reduce the initial rate of hydrolysis of substrate by 50% (IC50) was calculated as the residual activity of β-lactamase at 486 nm using GraFit version 7 kinetics software package (Erithacus Software, Surrey, UK).

The next assay concerns the target T2, SHV-5 β-lactamase (Klebsiella pneumoniae, UniProt P0A3M1).
T2 construct: made in house; host or cells: E. coli BL21(DE3)
In words: β-Lactamase inhibition enzyme assay, SHV-5. As to the method:
as §1, §2

The next assay deals with T3, KPC-2 β-lactamase (Klebsiella pneumoniae, UniProt Q9F663).
T3 construct: made in house; host or cells: E. coli BL21(DE3)
T3 sequence (Q9F663 25-293, looked up): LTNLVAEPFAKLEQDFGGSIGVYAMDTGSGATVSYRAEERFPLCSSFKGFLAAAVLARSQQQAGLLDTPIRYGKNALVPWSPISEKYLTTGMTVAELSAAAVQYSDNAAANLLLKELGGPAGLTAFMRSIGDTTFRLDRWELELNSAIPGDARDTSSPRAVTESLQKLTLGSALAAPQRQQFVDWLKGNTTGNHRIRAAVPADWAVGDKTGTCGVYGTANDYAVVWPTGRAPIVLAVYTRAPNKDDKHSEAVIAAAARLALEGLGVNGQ
The assay is described as follows: β-Lactamase inhibition enzyme assay, KPC-2. As to conditions: imipenem as substrate, 300 nm; 15 min at 37° C. with enzyme, PBS pH 7.4; read-out: Class A KPC-2 IC50. On the procedure:
as §1, §2

The target of a further assay is T4, p99 AmpC β-lactamase (Enterobacter cloacae, UniProt P05364).
T4 construct: made in house; host or cells: E. coli BL21(DE3)
T4 sequence (P05364 21-381): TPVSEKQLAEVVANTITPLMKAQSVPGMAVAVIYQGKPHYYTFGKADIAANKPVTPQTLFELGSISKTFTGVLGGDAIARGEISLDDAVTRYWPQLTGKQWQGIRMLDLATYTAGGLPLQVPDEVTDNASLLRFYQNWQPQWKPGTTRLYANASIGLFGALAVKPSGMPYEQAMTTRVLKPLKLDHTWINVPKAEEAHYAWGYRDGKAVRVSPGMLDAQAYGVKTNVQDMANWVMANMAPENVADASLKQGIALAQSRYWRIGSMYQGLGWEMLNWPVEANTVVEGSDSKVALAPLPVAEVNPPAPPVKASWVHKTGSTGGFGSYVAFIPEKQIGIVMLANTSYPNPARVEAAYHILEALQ
The assay is described as follows: β-Lactamase inhibition enzyme assay, p99 AmpC. On the procedure: as §1, §2

Assay [1] deals with T5, VIM-2 metallo β-lactamase (Pseudomonas aeruginosa, UniProt Q9K2N0).
T5 construct: made in house; host or cells: E. coli BL21(DE3)
In words: β-Lactamase inhibition enzyme assay, VIM-2. The following applies: Nitrocefin 100 μM as substrate, 486 nm; 15 min at 37° C. with enzyme, PBS pH 7.4; read-out: Class B VIM-2 IC50. On the procedure: as §1
For Vim-2 metallo β-lactamase, the procedure was identical with the following exceptions, first the protein was not pH adjusted to pH 5 with 50 mM sodium acetate, second, the chromatography step was changed to a 5 ml Q sepharose anion exchange column pre-equilibrated with 50 mM Hepes pH 7.5, and elution of the protein was achieved by a linear gradient of NaCl (0-600 mM). Finally, the VIM-2 purification required a second run (3rd step) on the Q sepharose anion exchange column to achieve acceptable purity (>90%).
as §2

T1 sequence (P13661 26-276): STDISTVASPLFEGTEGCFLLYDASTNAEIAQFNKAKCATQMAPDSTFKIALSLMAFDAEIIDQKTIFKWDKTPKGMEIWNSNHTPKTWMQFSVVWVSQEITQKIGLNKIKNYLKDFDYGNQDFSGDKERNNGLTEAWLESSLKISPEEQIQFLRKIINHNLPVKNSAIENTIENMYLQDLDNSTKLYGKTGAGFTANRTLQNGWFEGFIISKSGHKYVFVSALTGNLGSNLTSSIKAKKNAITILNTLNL
T2 sequence (P0A3M1 22-286): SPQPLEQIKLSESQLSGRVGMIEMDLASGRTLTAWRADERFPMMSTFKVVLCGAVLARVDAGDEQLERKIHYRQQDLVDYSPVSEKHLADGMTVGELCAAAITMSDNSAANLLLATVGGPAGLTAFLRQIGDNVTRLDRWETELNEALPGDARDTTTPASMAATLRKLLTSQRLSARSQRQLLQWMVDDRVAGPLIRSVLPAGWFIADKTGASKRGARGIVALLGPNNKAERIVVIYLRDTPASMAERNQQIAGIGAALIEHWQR

What is called pIC50 is −log10 of the IC50, conventionally taken in molar units. Turning to `NCCN1Cc2ccc(C(=O)N[C@H]3Cc4cccc(C(=O)O)c4OB3O)cc2C1` [Example 11, (R)-3-(2-(2-aminoethyl)isoindoline-5-carboxamido)-2-hydroxy-3,4-dihydro-2H-benzo[e][1,2]oxaborinine-8-carboxylic acid], the pIC50 was more than 7.00 on OXA-1 β-lactamase; more than 7.00 against SHV-5 β-lactamase; more than 7.00 on KPC-2 β-lactamase; more than 7.00 at p99 AmpC β-lactamase; 6.00 to 7.00 in assay [1].
On to `O=C(N[C@H]1Cc2cccc(C(=O)O)c2OB1O)c1ccc2c(c1)CN(Cc1cccnc1)C2` [Example 12, (R)-2-hydroxy-3-(2-(pyridin-3-ylmethyl)isoindoline-5-carboxamido)-3,4-dihydro-2H-benzo[e][1,2]oxaborinine-8-carboxylic acid], for which the negative-log IC50 (pIC50) on OXA-1 β-lactamase was more than 7.00; on SHV-5 β-lactamase, more than 7.00; on KPC-2 β-lactamase, more than 7.00; against p99 AmpC β-lactamase it was more than 7.00; in assay [1] it was 6.00 to 7.00.
Consider `O=C(Cc1cnc2c(c1)CCCN2)N[C@H]1Cc2cccc(C(=O)O)c2OB1O` [Example 13, (R)-2-hydroxy-3-(2-(5,6,7,8-tetrahydro-1,8-naphthyridin-3-yl)acetamido)-3,4-dihydro-2H-benzo[e][1,2]oxaborinine-8-carboxylic acid], for which the negative logarithm of the IC50 (pIC50) on OXA-1 β-lactamase was more than 7.00; against SHV-5 β-lactamase, more than 7.00; on KPC-2 β-lactamase, 6.00 to 7.00; against p99 AmpC β-lactamase, more than 7.00; in assay [1], 5.00 to 6.00.
With `NCc1ccc(C(=O)N[C@H]2Cc3cccc(C(=O)O)c3OB2O)cc1CN` [Example 14, (R)-3-(3,4-bis(aminomethyl)benzamido)-2-hydroxy-3,4-dihydro-2H-benzo[e][1,2]oxaborinine-8-carboxylic acid], the pIC50 on OXA-1 β-lactamase is more than 7.00; on SHV-5 β-lactamase it was 6.00 to 7.00; on KPC-2 β-lactamase it was 6.00 to 7.00; on p99 AmpC β-lactamase, more than 7.00; in assay [1], more than 7.00.
Consider `NC1=Nc2cc(C(=O)N[C@H]3Cc4cccc(C(=O)O)c4OB3O)ccc2CN1` [Example 15, (R)-3-(2-amino-3,4-dihydroquinazoline-7-carboxamido)-2-hydroxy-3,4-dihydro-2H-benzo[e][1,2]oxaborinine-8-carboxylic acid], for which the pIC50 on OXA-1 β-lactamase was 6.00 to 7.00; against SHV-5 β-lactamase, more than 7.00; on KPC-2 β-lactamase, 6.00 to 7.00; against p99 AmpC β-lactamase, more than 7.00; in assay [1], 5.00 to 6.00.
As to `N=C(N)N1Cc2ccc(C(=O)N[C@H]3Cc4cccc(C(=O)O)c4OB3O)cc2C1` [Example 16, (R)-3-(2-carbamimidoylisoindoline-5-carboxamido)-2-hydroxy-3,4-dihydro-2H-benzo[e][1,2]oxaborinine-8-carboxylic acid], the pIC50 (on OXA-1 β-lactamase; against SHV-5 β-lactamase; on KPC-2 β-lactamase; against p99 AmpC β-lactamase; in assay [1]) was more than 7.00 each time.
With `NC1=NCc2ccc(C(=O)N[C@H]3Cc4cccc(C(=O)O)c4OB3O)cc2CN1` [Example 17, (R)-3-(3-amino-4,5-dihydro-1H-benzo[e][1,3]diazepine-7-carboxamido)-2-hydroxy-3,4-dihydro-2H-benzo[e][1,2]oxaborinine-8-carboxylic acid], the pIC50 (at OXA-1 β-lactamase; against SHV-5 β-lactamase; at KPC-2 β-lactamase; against p99 AmpC β-lactamase; in assay [1]) was more than 7.00 each time.
On to `CN(C)Cc1ccc(C(=O)N[C@H]2Cc3cccc(C(=O)O)c3OB2O)cc1N` [Example 18, (R)-3-(3-amino-4-((dimethylamino)methyl)benzamido)-2-hydroxy-3,4-dihydro-2H-benzo[e][1,2]oxaborinine-8-carboxylic acid], for which the pIC50 at OXA-1 β-lactamase is more than 7.00; against SHV-5 β-lactamase, more than 7.00; on KPC-2 β-lactamase it was more than 7.00; against p99 AmpC β-lactamase, more than 7.00; in assay [1], 6.00 to 7.00.
`CNCc1ccc(C(=O)N[C@H]2Cc3cccc(C(=O)O)c3OB2O)cc1CNC` [Example 19, (R)-3-(3,4-bis((methylamino)methyl)benzamido)-2-hydroxy-3,4-dihydro-2H-benzo[e][1,2]oxaborinine-8-carboxylic acid]: the negative logarithm of the IC50 (pIC50) (on OXA-1 β-lactamase; on SHV-5 β-lactamase; at KPC-2 β-lactamase; at p99 AmpC β-lactamase; in assay [1]) was more than 7.00 in each case.
For `NCc1ccc(CC(=O)N[C@H]2Cc3cccc(C(=O)O)c3OB2O)cc1CN` [Example 20, (R)-3-(2-(3,4-bis(aminomethyl)phenyl)acetamido)-2-hydroxy-3,4-dihydro-2H-benzo[e][1,2]oxaborinine-8-carboxylic acid], the pIC50 (on OXA-1 β-lactamase; at SHV-5 β-lactamase; on KPC-2 β-lactamase; on p99 AmpC β-lactamase; in assay [1]) was more than 7.00 in each case.
For the molecule `CN(C)Cc1ccc(C(=O)N[C@H]2Cc3cccc(C(=O)O)c3OB2O)cc1NC(=O)[C@@H](N)CN` [Example 21, (R)-3-(3-((S)-2,3-diaminopropanamido)-4-((dimethylamino)methyl)benzamido)-2-hydroxy-3,4-dihydro-2H-benzo[e][1,2]oxaborinine-8-carboxylic acid], the negative logarithm of the IC50 (pIC50) was more than 7.00 at OXA-1 β-lactamase; 6.00 to 7.00 on SHV-5 β-lactamase; more than 7.00 at KPC-2 β-lactamase; more than 7.00 against p99 AmpC β-lactamase; more than 7.00 in assay [1].
For the molecule `Cc1ccc(C(=O)N[C@H]2Cc3cccc(C(=O)O)c3OB2O)cc1NC(=O)[C@@H](N)CN` [Example 22, (R)-3-(3-((S)-2,3-diaminopropanamido)-4-methylbenzamido)-2-hydroxy-3,4-dihydro-2H-benzo[e][1,2]oxaborinine-8-carboxylic acid], the pIC50 is more than 7.00 on OXA-1 β-lactamase; 5.00 to 6.00 on SHV-5 β-lactamase; 6.00 to 7.00 at KPC-2 β-lactamase; more than 7.00 at p99 AmpC β-lactamase; 6.00 to 7.00 in assay [1].
In the case of `Cc1ccc(C(=O)N[C@H]2Cc3cccc(C(=O)O)c3OB2O)cc1N` [Example 23, (R)-3-(3-amino-4-methylbenzamido)-2-hydroxy-3,4-dihydro-2H-benzo[e][1,2]oxaborinine-8-carboxylic acid], the pIC50 at OXA-1 β-lactamase is more than 7.00; against SHV-5 β-lactamase, more than 7.00; at KPC-2 β-lactamase, more than 7.00; against p99 AmpC β-lactamase it was more than 7.00; in assay [1], 6.00 to 7.00.
As for `O=C(N[C@H]1Cc2cccc(C(=O)O)c2OB1O)c1ccc(-c2ccccn2)cc1` [Example 24, (R)-2-hydroxy-3-(4-(pyridin-2-yl)benzamido)-3,4-dihydro-2H-benzo[e][1,2]oxaborinine-8-carboxylic acid], the pIC50 on OXA-1 β-lactamase is more than 7.00; against SHV-5 β-lactamase, more than 7.00; on KPC-2 β-lactamase, more than 7.00; against p99 AmpC β-lactamase it was more than 7.00; in assay [1], 6.00 to 7.00.
For the molecule `N=C(N)NCc1ccc(C(=O)N[C@H]2Cc3cccc(C(=O)O)c3OB2O)cc1CNC(=N)N` [Example 25, (R)-3-(3,4-bis(guanidinomethyl)benzamido)-2-hydroxy-3,4-dihydro-2H-benzo[e][1,2]oxaborinine-8-carboxylic acid], the pIC50 on OXA-1 β-lactamase was 6.00 to 7.00; at SHV-5 β-lactamase, 6.00 to 7.00; on KPC-2 β-lactamase, more than 7.00; against p99 AmpC β-lactamase, more than 7.00; in assay [1], more than 7.00.
